In patent US12559573B2, “Biotin-specific monoclonal antibody and use thereof” (Roche Diagnostics Operations, Inc., priority 2016, dated 2026):

Assay: Biotin interference in Elecsys TSH sandwich assay
Details: control reagent without anti-biotin antibody
Method: The control sample for the Elecsys TSH assay, PreciControl Universal 2 is spiked with rising concentrations of biotin (e.g. 0, 100 and 200 ng/mL final concentration of biotin). Reagent 2 of the Elecsys TSH sales kit containing the anti TSH detection-antibody is used in a unmodified version (control), and a modified version, additionally containing 300 μg/mL of an monoclonal anti Biotin antibody according to the invention. The sandwich assay is performed according to the routine assay protocol for the Elecsys TSH assay: Shortly, 50 μL of Sample (PreciControl Universal 2 with or without biotin) are incubated with 60 μL of Reagent 1 of the Elecsys TSH kit containing the biotinylated anti-TSH antibody and 50 μL of Reagent 2 containing the ruthenylated anti-TSH antibody with or without further addition of 300 μg/mL of the monoclonal anti Biotin antibody. After incubation at 37° C. for 9 min, 40 μL suspension of streptavidin coated magnetic beads of the Elecsys TSH kit are added, the reaction is incubated for another 9 min and finally the reaction mixture is aspirated into the measuring cell where the microparticles are magnetically captured onto the surface of the electrode. Unbound substances are then removed with ProCell. Application of a voltage to the electrode then induces electrochemiluminescense-based emission of light which is measured by a photomultiplier.

Compound: O=C(O)CCCC[C@@H]1SC[C@@H]2NC(=O)N[C@@H]21 [biotin, 5-[(3aS,4S,6aR)-2-oxo-1,3,3a,4,6,6a-hexahydrothieno[3,4-d]imidazol-4-yl]pentanoic acid]
- Signal relative to reference signal (sample without biotin) (100 ng/mL biotin in sample): 53%
- Signal relative to reference signal (sample without biotin) (200 ng/mL biotin in sample): 16%
